We go through one substance from patent publication US6080542A, “Plant peptide transport gene” (priority 1997, dated 2000).

One assay concerns PB1X-2A. As to the kind of experiment: Growth on peptides, parental strain. It is filed as cell-based, Saccharomyces cerevisiae. Conditions: data not shown. As for the experimental part:
(§1) Thus, the peptide transport mutant PB1X-9B and deletion strain PB1X-2AΔ transformed with plasmids pPTF4 (ATPTR2A) or pDTF1 (ATPTR2B) were grown on various peptides to assess the specificity of the plant peptide transporter. In addition, untransformed PB1X-9B, PB1X-9B transformed with plasmid pJP9 encoding the above-described yeast peptide transport gene, PB1X-2AΔ and PB1X-2A, the ptr2^+ parental strain to PB1X-2AΔ strain, were also assayed. Each strain was grown overnight in SC media plus uracil (non-transformed) or minus uracil (transformed) plus amino acids to stationary phase and harvested by centrifugation. Cells were then washed twice with sterile dH2 O and resuspended at 5×10^6 cells/ml. 5 μl of each suspension was applied as a small spot to a 2 ml volume of solid media in a 24 well plate. All peptides were suspended in sterile, deionized water and added to an equal volume of SC medium plus the appropriate amino acids and uracil when required. The medium for each assay thus consisted of SC medium plus or minus uracil supplemented with 80 μM of a specific peptide and auxotrophic requirements minus the amino acid components of the added peptide. The plates were incubated at 30° C. for 72 hrs. and then scored for growth.

Another assay concerns ATPTR2Ap. As to the kind of experiment: Uptake of L-leucyl-L-[3H]leucine and competition, PB1X-9B[pPTF4]. Conditions: PB1X-9B[pPTF4]; pH 5.5; dileucine and leucine at 100-fold.
Sequence of ATPTR2Ap (as listed by the source): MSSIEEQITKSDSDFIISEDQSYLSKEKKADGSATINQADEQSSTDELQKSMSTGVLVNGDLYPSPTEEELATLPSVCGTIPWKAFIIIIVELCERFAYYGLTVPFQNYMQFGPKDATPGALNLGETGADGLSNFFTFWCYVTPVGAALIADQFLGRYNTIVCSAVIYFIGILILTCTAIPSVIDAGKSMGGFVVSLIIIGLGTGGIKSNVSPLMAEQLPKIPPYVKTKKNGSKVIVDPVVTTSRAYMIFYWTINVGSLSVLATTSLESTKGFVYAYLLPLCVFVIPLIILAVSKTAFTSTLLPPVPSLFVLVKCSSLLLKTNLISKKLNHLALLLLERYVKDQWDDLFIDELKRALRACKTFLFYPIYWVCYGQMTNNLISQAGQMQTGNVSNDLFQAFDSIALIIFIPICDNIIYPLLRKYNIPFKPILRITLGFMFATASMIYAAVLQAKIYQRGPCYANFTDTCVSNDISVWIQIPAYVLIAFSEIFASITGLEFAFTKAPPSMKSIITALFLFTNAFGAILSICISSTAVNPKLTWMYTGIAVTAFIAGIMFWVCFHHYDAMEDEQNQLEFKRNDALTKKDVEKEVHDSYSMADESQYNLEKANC
The subject of another assay is PB1X-9B (pJP9). The assay can be described thus: Growth on peptides, mutant transformed with yeast peptide transport gene. In kind it is cell-based, Saccharomyces cerevisiae. As for the experimental part:
as §1, with “In” for “Thus, the peptide transport mutant PB1X-9B and deletion strain PB1X-2AΔ transformed with plasmids pPTF4 (ATPTR2A) or pDTF1 (ATPTR2B) were grown on various peptides to assess the specificity of the plant peptide transporter. In”

A further assay relates to PB1X-9B (pPTF4). As to the kind of experiment: Growth on peptides, mutant transformed with plant gene ATPTR2A. It is filed as cell-based, Saccharomyces cerevisiae. The procedure:
as §1, with “In” for “Thus, the peptide transport mutant PB1X-9B and deletion strain PB1X-2AΔ transformed with plasmids pPTF4 (ATPTR2A) or pDTF1 (ATPTR2B) were grown on various peptides to assess the specificity of the plant peptide transporter. In”

In assay [1] the target is T1, yeast peptide transport system (Saccharomyces cerevisiae, UniProt P32901).
T1 construct: The ptr2 gene encodes a 602 amino acid hydrophobic polypeptide with 12 putative hydrophobic segments; expressed in transfected cells; host or cells: S. cerevisiae peptide transport mutant PB1X-9B (ptr2-2) transformed with pJP9
T1 sequence (P32901 1-601): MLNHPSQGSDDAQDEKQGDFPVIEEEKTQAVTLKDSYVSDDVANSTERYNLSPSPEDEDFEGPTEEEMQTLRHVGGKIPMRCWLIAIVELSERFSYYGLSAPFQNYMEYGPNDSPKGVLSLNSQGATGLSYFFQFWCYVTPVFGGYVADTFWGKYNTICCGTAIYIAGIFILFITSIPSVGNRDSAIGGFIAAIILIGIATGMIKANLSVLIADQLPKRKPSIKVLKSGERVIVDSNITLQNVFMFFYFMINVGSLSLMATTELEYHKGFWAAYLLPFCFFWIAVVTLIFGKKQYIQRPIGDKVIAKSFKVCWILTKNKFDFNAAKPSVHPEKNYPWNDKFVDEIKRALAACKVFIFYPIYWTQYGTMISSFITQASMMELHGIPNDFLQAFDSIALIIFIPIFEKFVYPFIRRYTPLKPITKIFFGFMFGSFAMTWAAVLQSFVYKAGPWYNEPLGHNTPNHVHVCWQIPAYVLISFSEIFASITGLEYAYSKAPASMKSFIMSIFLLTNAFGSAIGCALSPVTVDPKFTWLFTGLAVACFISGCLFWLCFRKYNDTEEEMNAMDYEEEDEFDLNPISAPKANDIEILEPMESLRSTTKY
As to the kind of experiment: Competition for L-leucyl-L-[3H]leucine uptake, PB1X-9B[pJP9]. In kind it is cell-based. Particulars: pH 5.5. The procedure: L-leucyl-L [^3 H]leucine trifluoroacetic acid (TFA) was synthesized by standard solution phase techniques (Naider, F. et al., J. Biol. Chem. 249:9-20 (1974)). Uptake of L-leucyl-L-[H]leucine was performed as by Island, M. D. et al (J. Bacteriol. 169:2132-2136 (1987)), with the following modifications. Cells were grown to late log phase (26×10^7 cells/ml) overnight in SC with 2% glucose, 1 mg/ml allantoin plus amino acids to supplement auxotrophic markers. To induce peptide transport. 5-15 ml from this culture was added to 100 ml fresh medium such that the density was 3.0×10^6 cells/ml. This culture was allowed to grow (approx. 2 hrs.) to a density of 6.0×10^6 cells/ml and then harvested by centrifugation. The pelleted cells were washed twice with 10 ml cold dH2 O and suspended in cold 2% glucose to a final concentration of 2×10^8 cells/ml and incubated at 30° C. for 15 min. 500 μl of cells were then added to an equal volume of reaction mixture (30° C.) and incubated at 30°-C. At 20, 40, 60, 90, and 120 sec. intervals, 190 μl portions were removed, filtered over filters (pore size, 0.45 μm; GN-6; Gelman Sciences, Inc., Ann Arbor, Mich.) and washed 2 times with 5 ml cold, sterile dH2 O and once with 5 ml dH2 O at room temperatures. Filters were placed in scintillation vials with 5 ml of Budget-Solve scintillation cocktail (Research Products International Corp., Mount Prospect, Ill.) and counted (liquid scintillation counter; LS-7000; Beckman Instruments, Inc., Fullerton, Calif.). The final concentration of the components in the uptake assay was 1% glucose, 40 mM sodium citrate-potassium phosphate buffer (pH 5.5), and 1.5×105 M L-leucyl-L-[^3 H]leucine (specific activity, 10 mCi/mmole). Uptake is expressed as nanomoles per mg dry weight.

The subject of the next assay is PB1X-9B. As to the kind of experiment: Growth on peptides as amino acid source, peptide transport mutant. It is filed as cell-based, Saccharomyces cerevisiae. Particulars: PBIX-9B; 80 μM peptide in SC medium, 30° C., 72 hrs. The procedure:
as §1, with “In” for “Thus, the peptide transport mutant PB1X-9B and deletion strain PB1X-2AΔ transformed with plasmids pPTF4 (ATPTR2A) or pDTF1 (ATPTR2B) were grown on various peptides to assess the specificity of the plant peptide transporter. In”

With Met-Met-Leu: tripeptide (MML), the “utilization of peptide for growth (in words)” value in the assay on PB1X-2A is on record as “did not utilize”. The “competition for uptake of [3H]-dileucine” value (in the assay with ATPTR2Ap; in assay [1]) was “uptake competition similar to that seen for Leu-Leu” throughout. For the same substance, in the assay with PB1X-9B (pJP9) (PB1X-9B transformed with pJP9), the “growth on peptide (in words)” value is listed as “showed growth on all peptides except”. Besides, the growth on peptide result is “-” with PB1X-9B (pJP9) (PBIX-9B (pJP9), 80 μM peptide in SC medium, 30° C., 72 hrs); “-” in the assay with PB1X-9B (pPTF4) (PBIX-9B (pPTF4), 80 μM peptide in SC medium, 30° C., 72 hrs); “-” with PB1X-9B. For the same substance, the “growth on / utilization of peptide (in words)” value in the assay with PB1X-9B (pPTF4) (plant peptide transport gene (pPTF4)) is reported as “able to utilize”.
